# According to patent US20250197359A1, “CANNABINOID RECEPTOR MODULATING COMPOUNDS” (The U.S.A., as Represented by the Secretary, Department of …, priority 2022, published 2025):
# Read-outs that look alike come from different tables or passages of the source.
# How the values were obtained:
# [1] = target: T1, Brain/CB1 (Mus musculus, UniProt P47746); assay: Functional GTPγS binding, Brain/CB1; format: biochemical
# T1 construct: from tissue; host or cells: mouse brain membranes
# [2] = Metabolic stability in mouse liver microsomes; format: in vitro ADME; details: for microsomal CLint / half-life: mouse, liver microsomes; for half-life: read-out: t1/2, min
# [3] = test system: Caco-2; assay: Caco-2 permeability (A-B and B-A); format: in vitro ADME
# [4] = target: CB1 (UniProt P21554); assay: CB1 radioligand binding assay; set-up: species or system human; details: read-out: Ki (CB1)
# Procedure, shortened: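 Radioligand binding to human CB1 stably expressed in CHO cells and to mouse brain membrane CB1 gave binding constants. For selected compounds, antagonism of CP55940-induced CB1 activation was measured in MPXNomad-CB1 HEK293 cells via cAMPNomad (cAMP) and ArresNomad (β-arrestin) fluorescent biosensors.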
# [5] = Metabolic stability in human liver microsomes; format: in vitro ADME; details: for microsomal CLint / half-life: human, liver microsomes; for half-life: read-out: t1/2, min
# [6] = Caco-2 permeability (A-B and B-A); format: in vitro ADME; details: human; for efflux ratio: Caco-2, quotient of Papp(BA) to Papp(AB)
# [7] = target: T2, Cannabinoid receptor 1 (Homo sapiens, UniProt P21554); assay: cAMP signaling, red cAMPNomad biosensor, MPXNomad-CB1 HEK293 cell line, antagonism of CP55940; format: cell-based; details: for reduction in the fluorescence intensity, cAMP assay: CP55940 3 μM
# T2 construct: expressed in transfected cells; host or cells: MPXNomad-CB1 HEK293 cell line
# Description: (§1) A number of these amino carboxamido adducts with a variety of side chains have been synthesized. This led to interesting CB1R binding affinities of the synthesized molecules. Several of these racemic (glycine, valine) or diastereomeric molecules have binding affinities in single digit nanomolar range (2 nM to 10 nM) obtained from radioligand binding assay. Furthermore, we investigated the antagonist effect of a few compounds to analyze their capability to modulate CBIR induced by CP55940 in the MPXNomad-CB1 HEK293 cell line. This cell line has been validated measuring cAMP signaling and ß-Arrestin mobilization analyzing the fluorescence intensity of the red cAMPNomad and the green ArresNomad biosensors.
# (§2) The MPXNomad-CB1 cell line was used to test substances or examine their ability to interact with Cannabinoid receptor 1 where an agonist that binds to CB1 activates a G protein, which in turn causes CAMP to be released and a cellular response that is then internalized by ß-Arrestin. The assay determined the efficacy to block the activation of the CB1 receptor brought on by CP55940 in the MPXNomad-CB1 HEK293 cell line. AM251 1 μM and 3 µM was utilized as the positive control, CP55940 3 μM was used as the negative control, and vehicle (DMSO) served as the zero control. Treatment with CP55940 3 μM produced an increment in the fluorescence intensity of the red cAMPNomad and the green ArresNomad biosensors. […] Instead, the reduction was a 50%, 34% and 22% at 1 μM, 100 nM and 10 nM, respectively in the arrestin assay.
# [8] = target: T2, Cannabinoid receptor 1; assay: β-Arrestin mobilization, green ArresNomad biosensor, MPXNomad-CB1 HEK293 cell line, antagonism of CP55940; format: cell-based; details: for reduction in the fluorescence intensity, arrestin assay: CP55940 3 μM
# Description: as §1, §2
# [9] = target: iNOS (Mus musculus, UniProt P29477); assay: Inducible NOS biochemical assay
# Excerpt: Biochemical assay results are presented as the percent inhibition of specific binding or activity (iNOS, CAMP, beta arrestin).
# [10] = Caco-2, mean, read-out: Papp (AB), 10^−6 cm/s, Mean
# [11] = Caco-2, mean, read-out: Papp (BA), 10^−6 cm/s, Mean
# [12] = Caco-2, replicate 1, read-out: Papp (AB), 10^−6 cm/s, 1
# [13] = Caco-2, replicate 1, read-out: Papp (BA), 10^−6 cm/s, 1
# [14] = Caco-2, replicate 2, read-out: Papp (AB), 10^−6 cm/s, 2
# [15] = Caco-2, replicate 2, read-out: Papp (BA), 10^−6 cm/s, 2
# [16] = vs CP55940, MPXNomad-CB1 HEK293
# T1 sequence (P47746 whole entry): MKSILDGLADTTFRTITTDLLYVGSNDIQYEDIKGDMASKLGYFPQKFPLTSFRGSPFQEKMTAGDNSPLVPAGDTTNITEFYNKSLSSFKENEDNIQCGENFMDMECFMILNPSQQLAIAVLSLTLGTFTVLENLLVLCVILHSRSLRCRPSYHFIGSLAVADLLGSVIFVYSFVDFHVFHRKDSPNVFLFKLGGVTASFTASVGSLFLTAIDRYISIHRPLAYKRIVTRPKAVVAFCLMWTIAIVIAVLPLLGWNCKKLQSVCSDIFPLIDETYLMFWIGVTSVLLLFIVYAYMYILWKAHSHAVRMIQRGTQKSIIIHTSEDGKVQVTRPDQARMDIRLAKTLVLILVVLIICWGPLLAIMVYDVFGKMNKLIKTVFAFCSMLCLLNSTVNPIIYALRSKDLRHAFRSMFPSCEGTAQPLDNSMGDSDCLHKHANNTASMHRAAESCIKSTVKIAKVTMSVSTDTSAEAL
# T2 sequence (P21554 whole entry): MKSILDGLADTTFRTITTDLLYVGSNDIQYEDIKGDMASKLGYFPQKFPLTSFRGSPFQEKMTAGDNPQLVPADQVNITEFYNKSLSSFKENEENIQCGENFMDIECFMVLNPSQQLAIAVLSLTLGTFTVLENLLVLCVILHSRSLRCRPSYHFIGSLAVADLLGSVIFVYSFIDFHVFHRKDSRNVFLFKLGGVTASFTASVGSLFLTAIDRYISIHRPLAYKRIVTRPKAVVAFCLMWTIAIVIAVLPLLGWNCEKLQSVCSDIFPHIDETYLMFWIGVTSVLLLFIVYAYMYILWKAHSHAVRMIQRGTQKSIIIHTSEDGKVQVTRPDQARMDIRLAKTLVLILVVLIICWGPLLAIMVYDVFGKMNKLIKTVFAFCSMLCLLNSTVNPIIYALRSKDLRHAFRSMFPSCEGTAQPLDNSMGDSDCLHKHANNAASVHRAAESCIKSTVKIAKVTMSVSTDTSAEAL
Structure (SMILES),IC50 [1] [nM],"t1/2, min [2] [h]",Ki [4] [nM],microsomal CLint [5] [µL/min/mg],half-life [5] [h],"Papp A→B [6, 10] [×10⁻⁶ cm/s]","Papp B→A [6, 11] [×10⁻⁶ cm/s]","Papp A→B [6, 12] [×10⁻⁶ cm/s]","Papp B→A [6, 13] [×10⁻⁶ cm/s]","Papp A→B [6, 14] [×10⁻⁶ cm/s]","Papp B→A [6, 15] [×10⁻⁶ cm/s]",efflux ratio [6],microsomal CLint [2] [µL/min/mg],half-life [2] [h],iNOS inhibition % Response [9] [%],also measured
"CC(C)C(N/C(=N/S(=O)(=O)c1ccc(C(F)(F)F)cc1)N1CCC(c2ccccc2)C(c2ccc(Cl)cc2)=N1)C(N)=O (single isomer, unassigned) [Compound 29a, (Z)-2-(3-(4-chlorophenyl)-4-phenyl-N′-((4-(trifluoromethyl)phenyl)sulfonyl)-1,4,5,6-tetrahydropyridazine-1-carboximidamido)-3-methylbutanamide]",389,0.118,13.2,23,1.22,–,–,–,–,–,–,–,–,–,–,"Clint [2]: 236 µL/min/mg; Papp (AB), 10^−6 cm/s, Mean ([3]; mean): 1.4 10^−6 cm/s; Papp (BA), 10^−6 cm/s, Mean ([3]; mean): 0.5 10^−6 cm/s; efflux ratio ([3]; quotient of Papp(BA) to Papp(AB)): 0.4; Papp (AB), 10^−6 cm/s, 1 ([3]; replicate 1): 1.4 10^−6 cm/s; Papp (BA), 10^−6 cm/s, 1 ([3]; replicate 1): 0.5 10^−6 cm/s; Papp (AB), 10^−6 cm/s, 2 ([3]; replicate 2): 1.4 10^−6 cm/s; Papp (BA), 10^−6 cm/s, 2 ([3]; replicate 2): 0.5 10^−6 cm/s"
"CC(C)C(N/C(=N/S(=O)(=O)c1ccc(C(F)(F)F)cc1)N1CCC(c2ccccc2)C(c2ccc(Cl)cc2)=N1)C(N)=O (single isomer, unassigned) [Compound 29b, (Z)-2-(3-(4-chlorophenyl)-4-phenyl-N′-((4-(trifluoromethyl)phenyl)sulfonyl)-1,4,5,6-tetrahydropyridazine-1-carboximidamido)-3-methylbutanamide]",10,0.0317,2.7,–,–,0.9,0.3,0.9,0.3,1,0.4,0.4,–,–,–,"Clint [2]: 883 µL/min/mg; Clint [5]: 15 µL/min/mg; t1/2, min [5]: 1.91 h"
"CC(C)C(N/C(=N/S(=O)(=O)c1ccc(C(F)(F)F)cc1)N1CCC(c2ccccc2)C(c2ccc(Cl)cc2)=N1)C(N)=O (stereo not shown) [2-(3-(4-chlorophenyl)-4-phenyl-N′-((4-(trifluoromethyl)phenyl)sulfonyl)-1,4,5,6-tetrahydropyridazine-1-carboximidamido)-3-methylbutanamide]",–,–,–,–,–,–,–,–,–,–,–,–,–,–,–,"IC50 [7, 16]: 0.804 nM; IC50 [8, 16]: 0.227 nM"
"N/C(=N/C(=N/S(=O)(=O)c1ccc(C(F)(F)F)cc1)N1CCC(c2ccccc2)C(c2ccc(Cl)cc2)=N1)c1ccccc1Cl (stereo not shown) [Compound 10s, (Z)—N—((E)-amino (2-chlorophenyl)methylene)-3-(4-chlorophenyl)-4-phenyl-N′-((4-(trifluoromethyl)phenyl)sulfonyl)-5,6-dihydropyridazine-1 (4H)-carboximidamide]",19,–,20.5,–,–,–,–,–,–,–,–,–,–,–,24,–
"CS/C(N)=N\C(=N\S(=O)(=O)c1ccc(C(F)(F)F)cc1)N1CCC(c2ccccc2)C(c2ccc(Cl)cc2)=N1 (stereo not shown) [Compound 11b, methyl (Z)—N′—((Z)-(3-(4-chlorophenyl)-4-phenyl-5,6-dihydropyridazin-1 (4H)-yl)(((4-(trifluoromethyl)phenyl)sulfonyl)imino)methyl)carbamimidothioate]",125,–,86.7,–,–,–,–,–,–,–,–,–,–,–,56,–
"O=S(=O)(/N=C(/N=C1\CCCCN1)N1CCC(c2ccccc2)C(c2ccc(Cl)cc2)=N1)c1ccc(C(F)(F)F)cc1 (stereo not shown) [Compound 16, (Z)-3-(4-chlorophenyl)-4-phenyl-N—((E)-piperidin-2-ylidene)-N′-((4-(trifluoromethyl)phenyl)sulfonyl)-5,6-dihydropyridazine-1 (4H)-carboximidamide]",104,–,26,–,–,–,–,–,–,–,–,–,–,–,51,–

# More lines, in order of falling IC50 [1], values ahead:
IC50 [1] [nM],"t1/2, min [2] [h]",Ki [4] [nM],microsomal CLint [5] [µL/min/mg],half-life [5] [h],"Papp A→B [6, 10] [×10⁻⁶ cm/s]","Papp B→A [6, 11] [×10⁻⁶ cm/s]","Papp A→B [6, 12] [×10⁻⁶ cm/s]","Papp B→A [6, 13] [×10⁻⁶ cm/s]","Papp A→B [6, 14] [×10⁻⁶ cm/s]","Papp B→A [6, 15] [×10⁻⁶ cm/s]",efflux ratio [6],microsomal CLint [2] [µL/min/mg],half-life [2] [h],iNOS inhibition % Response [9] [%],Structure (SMILES),also measured
640,–,99.7,–,–,–,–,–,–,–,–,–,–,–,66,"CCS/C(N)=N\C(=N/S(=O)(=O)c1ccc(C(F)(F)F)cc1)N1CCC(c2ccccc2)C(c2ccc(Cl)cc2)=N1 (stereo not shown) [Compound 11i, ethyl (Z)—N′—((E)-(3-(4-chlorophenyl)-4-phenyl-5,6-dihydropyridazin-1 (4H)-yl)(((4-(trifluoromethyl)phenyl)sulfonyl)imino)methyl)carbamimidothioate]",–
93,–,15,2,12.7,2.5,1.9,2.4,1.9,2.5,1.8,0.8,34,0.813,64,"C/C(N)=N\C(=N\S(=O)(=O)c1ccc(C(F)(F)F)cc1)N1CCC(c2ccccc2)C(c2ccc(Cl)cc2)=N1 (stereo not shown) [Compound 10b, (Z)—N—((E)-1-aminoethylidene)-3-(4-chlorophenyl)-4-phenyl-N′-((4-(trifluoromethyl)phenyl)sulfonyl)-5,6-dihydropyridazine-1 (4H)-carboximidamide]","reduction in the fluorescence intensity, cAMP assay ([7]; 10 nM): ~19%; reduction in the fluorescence intensity, cAMP assay ([7]; 100 nM): ~29%; reduction in the fluorescence intensity, cAMP assay ([7]; 1 μM): ~47%; reduction in the fluorescence intensity, arrestin assay ([8]; 10 nM): 22%; reduction in the fluorescence intensity, arrestin assay ([8]; 100 nM): 34%; reduction in the fluorescence intensity, arrestin assay ([8]; 1 μM): 50%"
18,1.23,10,26,1.07,2.2,0.5,1.9,0.5,2.4,0.5,0.2,23,1.13,66,"CC(C)(C)/C(N)=N/C(=N/S(=O)(=O)c1ccc(C(F)(F)F)cc1)N1CCC(c2ccccc2)C(c2ccc(Cl)cc2)=N1 (stereo not shown) [Compound 10o, (Z)—N—((Z)-1-amino-2,2-dimethylpropylidene)-3-(4-chlorophenyl)-4-phenyl-N′-((4-(trifluoromethyl)phenyl)sulfonyl)-5,6-dihydropyridazine-1 (4H)-carboximidamide]","t1/2, min [5]: 1.07 h"
13,1.13,9.6,6,4.8,1.4,0.6,1.5,0.6,1.3,0.5,0.4,25,1.3,36,"N/C(=N\C(=N\S(=O)(=O)c1ccc(C(F)(F)F)cc1)N1CCC(c2ccccc2)C(c2ccc(Cl)cc2)=N1)c1ccc(F)cc1F (stereo not shown) [Compound 10p, (Z)—N—((Z)-amino (2,4-difluorophenyl)methylene)-3-(4-chlorophenyl)-4-phenyl-N′-((4-(trifluoromethyl)phenyl)sulfonyl)-5,6-dihydropyridazine-1 (4H)-carboximidamide]",–
